Test results from paper PMC9043238, “Evaluation of Potential DnaK Modulating Proline-Rich Antimicrobial Peptides Identified by Computational Screening” (Frontiers in Chemistry, 2022).
“Also recorded” adds a separate entry of the source.

Columns and labels:
DnaK [1] = details: peptide 300 µM; 0.3 µM DnaK; 20 mM TRIS, 150 mM KCl, 5 mM MgCl2, 1 mM ATP, pH 7.5; 1 h at 37°C; Malachite Green, A620; result in words (Figure 1)
Protocol: Peptides were assessed for their capacity to inhibit the ATPase activity of DnaK by a colorimetric assay. Peptide at 300 µM concentration were assayed in 100 µl format where each reaction contained 0.3 µM of DnaK in DnaK assay buffer (20 mM TRIS, 150 mM KCl, 5 mM MgCl2, 1 mM ATP, pH 7.5). After 60 min, 20 µl samples were taken (3 x per reaction) for assessment by Malachite Green Phosphate assay kit (Sigma—MAK307). The samples were added to 80 µl of Milli-Q water in a 96 well plate, before adding 20 µl of staining solution, and incubated at room temperature for 30 min before measuring A620 on a plate reader ([Zahn et al., 2013]). A negative control was included for each peptide where the same assay conditions are used in the absence of DnaK. The relative activity of DnaK in the presence of each of the putative DnaK binding peptides was assessed using the following equation: DnaKacitivity %= (OD620 sample−OD620 negative control)/(OD620 positive control−OD620 negative control) × 100
We selected four potential PrAMPs from the list of newly identified PrAMPs for evaluation. […] Each was chemically synthesized, purified, and exchanged into HCl salt prior to investigation of antimicrobial properties (Supplementary Information, Supplementary Figure S1). The ability of the potential PrAMPs to modulate the activity of DnaK was assessed at 300 µM in vitro through a colorimetric assay with a known binder of DnaK, oncocin, as a positive control peptide (Figure 1).
Each was incubated with DnaK for 1 h at 37°C and the free phosphate generated was detected with a Malachite Green-based stain. Activities are reported in % activity relative to DnaK positive and DnaK negative samples with constraints at 0% activity. All peptides were assayed at 300 µM. One-way ANOVA followed by Dunnett’s multiple comparisons test was performed to compare the control (DnaK) to each of the peptides, p < 0.05 (*) and p < 0.001 (**) are indicated.

[2] = system: Escherichia coli ATCC 25922 and E. coli BAA 3051; assay: Antibacterial MIC assay, E. coli; format: cell-based; details: MHB, serial dilution up to 128 µM, 6 h growth, OD read-out, MIC = concentration at which growth surpassed 10%; result in words
Protocol: (§1) For the antimicrobial assays, the strains used were as follows: Staphylococcus aureus ATCC 29213, Escherichia coli ATCC 25922 and E. coli BAA 3051.
(§2) Peptides were assessed for their MIC against various bacterial strains. Peptides were serially diluted at two x final concentration across a 96 well plate with the final well containing no peptide and control lanes of no antibacterial agent, and lanes of no bacteria or antibacterial agent. All dilutions were in sterile MHB. Each bacterial strain was grown overnight before inoculation of a fresh culture in the morning of assay, the culture was allowed to grow until OD600 = ∼1.0 before dilution to achieve 2 × 10^6 CFU/ml based of the equations 2e+7e^(2.9218∗OD600) for E. coli and 2e+7e^(2.5537∗OD600). Bacteria were added 1:1 to wells containing the serially diluted peptide(s) and were allowed to grow for 6 h, in regards to E. coli, or 24 h, in regards to S. aureus, before measuring OD620 on a plate reader. Bacterial growth per well was determined using the following equation: Bacterial growth %= (OD600 sample−OD600 negative control)/(OD600 positive control−OD600 negative control)×100
(§3) The MIC breakpoint was determined using GraphPad PRISM observing for the concentration at which growth surpassed 10%.
FIGURE 2 Minimum inhibitory concentration of potential PrAMPs. Each of the potential PrAMPs were assayed for MIC against E. coli ATCC 25922 (A), E. coli BACC 3051 (B), and S. aureus 29213 (C), up to 128 µM in MHB media.

[3] = system: Staphylococcus aureus ATCC 29213; assay: Antibacterial MIC assay, S. aureus; format: cell-based; details: MHB, up to 128 µM, 24 h growth, OD read-out; result in words
Protocol: as §1, §2, §3
FIGURE 2 Minimum inhibitory concentration of potential PrAMPs. […]

E. coli ATCC 25922 = assay: MIC of peptide combinations (synergy); format: cell-based, Escherichia coli; details: equimolar combination with oncocin or P9, Figure 3
Protocol: as §2, §3
One potential reason is that these peptides are unable to access the cytoplasm of the cell. Consequently, the synergistic capacity of PP30, attacin-C, and antibacterial napin with oncocin or P9 was examined (Figure 3).
(A) MIC assessment of oncocin with/without antibacterial napin/PP30/attacin-C. (B) MIC assessment of P9 with/without antibacterial napin/PP30/attacin-C. Each peptide is present in equimolar concentration with the individual concentration shown in the X axis.

Bacillus subtilis = details: Gram-positive bacterium; ref Ngai and Ng, 2004; cited from earlier work
Protocol: (§4) It is interesting to note that the peptides tested which inhibit DnaK are in fact not antimicrobial at concentrations of 128 µM or less. This may be because the peptides act in vivo as part of a complex multi-peptide cocktail with synergistic effects.

E. coli = details: Gram-negative bacterium; ref Ngai and Ng, 2004; cited from earlier work
Protocol: as §4

DnaK [4] = details: ref Krizsan et al., 2014; cited from earlier work
Description: Recently, we assessed a new set of criteria for PrAMPs and scanned the DRAMP database (http://dramp.cpu-bioinfor.org/) to detect novel PrAMPs based on similarity to known DnaK inhibitors ([Welch et al., 2020]). […] Here, we undertook screening of these putative new ...

bacterial membrane = details: ref Shen et al., 2010; cited from earlier work
Description: This dual mode of action of PP30, membrane lysis and DnaK […], is novel and unreported for other native PrAMPs.

Sequence	Effect on DnaK activity (ATP hydrolysis), % activity relative to DnaK positive and negative samples (DnaK [1])	Antimicrobial activity (MIC assessment) against E. coli [2]	Antimicrobial activity (MIC assessment) against S. aureus [3]	Synergy in combination treatment (MIC) (E. coli ATCC 25922)	Activity against Bacillus subtilis (Bacillus subtilis)	Activity against E. coli (E. coli)	DnaK binding (DnaK [4])	Membrane-lytic action (bacterial membrane)
PAQPFRFPKHPQGPQTRPPI [Antibacterial napin, predicted PrAMP from the DRAMP database, chemically synthesized 20-residue peptide]	inhibit DnaK activity	inactive; also recorded: lack of direct antimicrobial activity	inactive	no synergistic effects	active	inactive	–	–
QRPYTQPLIYYPPPPTPPRIYRA [Attacin-C, predicted PrAMP from the DRAMP database, chemically synthesized 23-residue peptide]	inhibit DnaK activity	lack of direct antimicrobial activity	–	no synergistic effects	–	–	–	–
RFIPPILRPPVRPPFRPPFRPPFRPPPIIRFFGG [P9, predicted PrAMP from the DRAMP database, chemically synthesized 34-residue peptide]	increases the ATP hydrolysis of DnaK	potent antimicrobial activity	–	–	–	–	–	–
VDKPPYLPRPRPPRRIYNR [Oncocin]	–	–	–	–	–	–	DnaK binder	–
YVPPVQKPHPNGPKFPTFP [PP30, predicted PrAMP from the DRAMP database, chemically synthesized 19-residue peptide]	inhibit DnaK activity	has not however resulted in observable MICs; also recorded: lack of direct antimicrobial activity	–	no synergistic effects	–	–	–	membrane-lytic
